Measured values: patent publication US7534768B2, “Treatment of DNA viral infections” (Henderson Morely Research and Development Ltd., priority 2000, dated 2009)
Like-named read-outs stand apart in the source and are kept apart here.

Columns and labels:
[1] = tested on: type 2 herpes simplex strain 3345; assay: Inhibition of hsv2 replication in African green monkey kidney cells (Example 3); assay type: cell-based, herpes simplex virus; conditions: for Inhibition of virus replication / inhibition at 500 µg/mL: Digoxin 0 mcg/ml; for Inhibition of virus replication: Frusemide 1.0 mg.ml; for inhibition at 500 µg/mL: Frusemide 0.5 mg/ml, read-out: Inhibition of virus replication; for inhibition at 15 µg/mL: Digoxin 15 mcg/ml; for inhibition at 15 µg/mL / inhibition at 30 µg/mL: Frusemide 0 mg/ml; for inhibition at 30 µg/mL: Digoxin 30 mcg/ml
Excerpt: The compositions were applied to different types of vero cells (African green monkey kidney cells and […]) and infected with type 2 herpes simplex virus (strains 3345 and 180) at low, intermediate, and high multiplicities of infection (M0I). Inhibition of virus replication was scored on the scale:
The following results were obtained using African green monkey kidney cells and type 2 herpes simplex strain 3345: […]

[2] = tested on: Type 1 herpes simplex strain HFEM; assay: Inhibition of hsv1 in infected Vero cells (Example 1); assay type: cell-based, herpes simplex virus; conditions: Human alphaherpesvirus 1, Vero; for inhibition at 1000 µg/mL: frusemide 1 mg/ml, digoxin 30 mcg/ml
Description: . Culture and assay methods follow those described by Lennette and Schmidt (1979) for herpes simplex virus and Vero cells with minor modifications.
Type 1 herpes simplex strain HFEM is a derivative of the Rockerfeller strain HF (Wildy 1955), and Type 2 herpes simplex strain 3345, a penile isolate (Skinner et al 1977) were used as prototype strains. These prototypes were stored at −80° C. until needed.
African Green Monkey kidney cells (vero) were obtained from the National Institute of Biological Standards and Control UK and were used as the only cell line for all experiments in the examples.
Cells and viruses were maintained on Glasgows modified medium supplemented with 10% foetal bovine serum.

[3] = cited from earlier work
[4] = Human alphaherpesvirus 2, read-out: Inhibition of virus replication, HIGH M0I HSV2
[5] = Human alphaherpesvirus 2, read-out: Inhibition of virus replication, INT. M0I HSV2
[6] = Human alphaherpesvirus 2, read-out: Inhibition of virus replication, LOW M0I HSV2

In the case of `NS(=O)(=O)c1cc(C(=O)O)c(NCc2ccco2)cc1Cl` [frusemide, 4-chloro-N-furfuryl-5-sulfamoylanthranilic acid], the “Inhibition of virus replication” value ([1]; HIGH M0I HSV2) is reported as “++ (40% inhibition)”, the inhibition at 500 µg/mL ([1]; Human alphaherpesvirus 2, HIGH M0I HSV2) is reported as 0% and the inhibition at 500 µg/mL ([1]; Human alphaherpesvirus 2, INT. M0I HSV2) is reported as 20%. For the same compound, the inhibition at 500 µg/mL ([1]; Human alphaherpesvirus 2, LOW M0I HSV2) was 20%, the “Inhibition of virus replication” value ([1]; INT. M0I HSV2) was “+++ (60% inhibition)” and the “Inhibition of virus replication” value ([1]; LOW M0I HSV2) was “+++ (60% inhibition)”. It also gave an inhibition at 1000 µg/mL ([2]; Multiplicity of infection High) of 0%, an inhibition at 1000 µg/mL ([2]; Multiplicity of infection Low) of 20% and an inhibition at 1000 µg/mL ([2]; Multiplicity of infection Medium) of 20%.

`C[C@H]1O[C@@H](O[C@H]2[C@@H](O)C[C@H](O[C@H]3[C@@H](O)C[C@H](O[C@H]4CC[C@@]5(C)[C@H](CC[C@@H]6[C@@H]5C[C@@H](O)[C@]5(C)[C@@H](C7=CC(=O)OC7)CC[C@]65O)C4)O[C@@H]3C)O[C@@H]2C)C[C@H](O)[C@@H]1O` [digoxin] gave an inhibition at 15 µg/mL [1, 4] of 0%, an inhibition at 30 µg/mL [1, 4] of 0% and an inhibition at 15 µg/mL [1, 5] of 0%. The inhibition at 30 µg/mL [1, 5] was 20%, the inhibition at 15 µg/mL [1, 6] was 0% and the inhibition at 30 µg/mL [1, 6] was 60%. For the same compound, the solubility ([3]; in diluted (50%) alcohol and in chloroform) was “slightly soluble”, the solubility ([3]; in pyridine) was “freely soluble” and the solubility ([3]; in water and in ether) was “practically insoluble”. For the same compound, the inhibition at 30 µg/mL ([2]; read-out: Inhibition of hsv1, Multiplicity of infection High, frusemide 1 mg/ml, digoxin 30 mcg/ml) was 0%, the inhibition at 30 µg/mL ([2]; read-out: Inhibition of hsv1, Multiplicity of infection Low, frusemide 1 mg/ml, digoxin 30 mcg/ml) was 40% and the inhibition at 30 µg/mL ([2]; read-out: Inhibition of hsv1, Multiplicity of infection Medium, frusemide 1 mg/ml, digoxin 30 mcg/ml) was 20%.
